According to patent US20250296971A1, “GASTRIC INHIBITORY PEPTIDE RECEPTOR LIGANDS” (priority 2021, published 2025):
*1 amine or outer side, *2 acyl side, *3 side chain or, on linkers, in order; H or OH if unused. Where a SMILES comes first, the peptide text is derived from it. Bridges are numbered along the chain shown (N, C = ends). [ ]: non-standard residue; d: D form. The star is where a group is joined. X5 = NC(=O)[C@H](CCCCNC(=O)CN1CCN(CC(=O)O)CCN(CC(=O)O)CCN(CC(=O)O)CC1)NC(=O)CCC(=O)NCCCOCCOCCOCCCN*; X25 = NC(=O)C(CCCCNC(=O)CN1CCN(CC(=O)O)CCN(CC(=O)O)CCN(CC(=O)O)CC1)NC(=O)CCC(=O)NCCCOCCOCCOCCCN*; X3 = O=C(O)CN1CCN(CC(=O)O)CCN(CC(=O)NCCCOCCOCCOCCCN*)CCN(CC(=O)O)CC1; Trp(5-Cl) = N[C@@H](Cc1c[nH]c2ccc(Cl)cc12)C(=O)O; Phe(3,5-Cl2) = N[C@@H](Cc1cc(Cl)cc(Cl)c1)C(=O)O; Pyridine(2,6-diCH2) = c1cc(C[*:1])nc(C[*:2])c1; Trp(5-F) = N[C@@H](Cc1c[nH]c2ccc(F)cc12)C(=O)O; 1Nal = N[C@@H](Cc1cccc2ccccc12)C(=O)O; 2Nal = N[C@@H](Cc1ccc2ccccc2c1)C(=O)O; mXylylene = c1cc(C[*:1])cc(C[*:2])c1; Hyp = O=C(O)[C@@H]1C[C@@H](O)CN1; Suc = O=C(CCC(=O)[*:2])[*:1]; Thp = NC1(C(=O)O)CCOCC1; Aib = CC(C)(N)C(=O)O

Target: T1, GIPR (CHO-K1-hGIPR cells) (Homo sapiens, UniProt P48546)
T1 construct: host or cells: CHO-K1
T1 sequence (P48546 22-466): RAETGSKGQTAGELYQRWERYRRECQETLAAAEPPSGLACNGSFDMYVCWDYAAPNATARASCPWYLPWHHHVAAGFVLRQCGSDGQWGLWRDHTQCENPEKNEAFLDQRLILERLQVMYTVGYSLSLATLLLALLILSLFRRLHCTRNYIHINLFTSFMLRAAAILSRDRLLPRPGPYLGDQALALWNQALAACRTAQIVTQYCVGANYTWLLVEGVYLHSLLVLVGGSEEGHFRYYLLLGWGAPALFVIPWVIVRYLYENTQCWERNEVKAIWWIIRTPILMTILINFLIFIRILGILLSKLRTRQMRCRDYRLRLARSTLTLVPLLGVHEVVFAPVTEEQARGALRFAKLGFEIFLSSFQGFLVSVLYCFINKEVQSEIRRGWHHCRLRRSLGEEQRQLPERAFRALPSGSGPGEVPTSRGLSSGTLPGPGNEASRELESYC
Test: FACS binding assay
Conditions: competition with 20 nM GIP-057, 4° C. for 1 hour, read-out: pIC50 Category (converted)
Outline: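 Median fluorescence in the APC channel, measured on washed CHO-K1 cells overexpressing human GIPR, was fitted by four-parameter logistic regression against peptide concentration to yield EC50 or IC50 values. Secondary labelling used APC-streptavidin (1 μg/mL, 30 min, ice).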

Molecule	IC50 [nM]
CC[C@H](C)[C@@H]1NC(=O)[C@H](CC(C)C)NC(=O)C(C)(C)NC(=O)[C@@H](NC(=O)[C@H](CC(N)=O)NC(=O)[C@H](CCC(=O)O)NC(=O)[C@@H]2CCCN2C(=O)[C@H](Cc2cccc3ccccc23)NC(=O)[C@H](Cc2c[nH]c3ccccc23)NC(=O)[C@H](CC(=O)O)NC(C)=O)CSCc2cccc(c2)CSC[C@@H](C(N)=O)NC1=O [GIP-340, Ac-Asp-Trp-1Ni-Pro-Glu-Asn-[Cys(3MeBn)-Aib-Leu-Ile-Cys]-NH2] (Ac-DW[1Nal]PENC[Aib]LIC-NH2; linker 7-11 via mXylylene)	> 1000
CC[C@H](C)[C@@H]1NC(=O)[C@H](CC(C)C)NC(=O)C2(CCOCC2)NC(=O)[C@@H](NC(=O)[C@@H](CC(C)C)NC(=O)[C@H](CCC(=O)O)NC(=O)[C@@H]2C[C@@H](O)CN2C(=O)[C@H](Cc2cc(Cl)cc(Cl)c2)NC(=O)[C@H](Cc2c[nH]c3ccccc23)NC(=O)[C@H](CC(=O)O)NC(=O)CCC(=O)NCCCOCCOCCOCCCNC(=O)CN2CCN(CC(=O)O)CCN(CC(=O)O)CCN(CC(=O)O)CC2)CSCc2cccc(n2)CSC[C@@H](C(N)=O)NC1=O [GIP-401, DOTA-Ttds-Asp-Trp-Egn-Hyp-Glu-leu-[Cys(2Lut)-Thp-Leu-Ile-Cys]-NH2] ({X3-Suc}-DW[Phe(3,5-Cl2)][Hyp]E[dL]C[Thp]LIC-NH2; linker 7-11 via Pyridine(2,6-diCH2))	10 to 79.4
CC[C@H](C)[C@@H]1NC(=O)[C@H](CC(C)C)NC(=O)C2(CCOCC2)NC(=O)[C@@H](NC(=O)[C@@H](CC(C)C)NC(=O)[C@H](CCC(=O)O)NC(=O)[C@@H]2C[C@@H](O)CN2C(=O)[C@H](Cc2c[nH]c3ccc(Cl)cc23)NC(=O)[C@H](Cc2c[nH]c3ccccc23)NC(=O)[C@H](CC(=O)O)NC(C)=O)CSSC[C@@H](C(N)=O)NC1=O [GIP-364, Ac-Asp-Trp-5Clw-Hyp-Glu-leu-[Cys-Thp-Leu-Ile-Cys]-NH2] (Ac-DW[Trp(5-Cl)][Hyp]E[dL]C[Thp]LIC-NH2; disulfide 7-11)	100 to 794
CC[C@H](C)[C@@H]1NC(=O)[C@H](CC(C)C)NC(=O)C(C)(C)NC(=O)[C@@H](NC(=O)[C@H](CC(C)C)NC(=O)[C@H](CCC(=O)O)NC(=O)[C@@H]2CCCN2C(=O)[C@H](Cc2ccc3ccccc3c2)NC(=O)[C@H](Cc2c[nH]c3ccccc23)NC(=O)[C@H](CC(=O)O)NC(C)=O)CSCc2cccc(c2)CSC[C@@H](C(=O)NCCCOCCOCCOCCCNC(=O)CCC(=O)NC(CCCCNC(=O)CN2CCN(CC(=O)O)CCN(CC(=O)O)CCN(CC(=O)O)CC2)C(N)=O)NC1=O (stereo partly drawn) [GIP-294, Ac-Asp-Trp-2Ni-Pro-Glu-Leu-[Cys(3MeBn)-Aib-Leu-Ile-Cys]-Ttds-Lys(DOTA)-NH2] (Ac-DW[2Nal]PELC[Aib]LIC-X25; linker 7-11 via mXylylene)	> 1000

Same assay, conditions: competition with 20 nM GIP-057, 4° C., 1 hour

Molecule	pIC50 Category
HO-Succinyl-Trp-5Clw-Hyp-Glu-leu-[Cys(2Lut)-Thp-Leu-Ile-Cys]-APAc-lys(MeO2kDaPEGAc)-Lys(DOTA)-NH2 [GIP-144]	B (pIC50 values between 7.1 and 8.0)

Same assay, conditions: competition with 20 nM GIP-057, 4° C., 1 hour, read-out: pIC50 Category (converted)

Molecule	IC50 [nM]
CC[C@H](C)[C@@H]1NC(=O)[C@H](CC(C)C)NC(=O)C(C)(C)NC(=O)[C@@H](NC(=O)[C@@H](CC(C)C)NC(=O)[C@H](CCC(=O)O)NC(=O)[C@@H]2CCCN2C(=O)[C@H](Cc2c[nH]c3ccc(F)cc23)NC(=O)[C@H](Cc2c[nH]c3ccccc23)NC(=O)[C@H](CC(=O)O)NC(C)=O)CSCc2cccc(c2)CSC[C@@H](C(=O)NCCCOCCOCCOCCCNC(=O)CCC(=O)N[C@@H](CCCCNC(=O)CN2CCN(CC(=O)O)CCN(CC(=O)O)CCN(CC(=O)O)CC2)C(N)=O)NC1=O [GIP-081, Ac-Asp-Trp-5Fw-Pro-Glu-leu-[Cys(3MeBn)-Aib-Leu-Ile-Cys]-Ttds-Lys(DOTA)-NH2] (Ac-DW[Trp(5-F)]PE[dL]C[Aib]LIC-X5; linker 7-11 via mXylylene)	< 10
